Entries after “also recorded” stand apart in the source; their conditions may differ.

Holding throughout (assay type): cell-based, human
Assay [1] has as its system KBM7 cells.
Assay [2] concerns KBM7 cells. The source holds these as a separate data set.
Assay [3] has as its system KBM7 cells. This is another data set of the same source.

In the assay on KBM7 cells [1], protamine sulphate gave an infection efficiency of 44%. For TRAIL, the Cell viability result in the assay with KBM7 cells [2] is recorded as “decreased dramatically”. In the assay on KBM7 cells [1], polybrene had an infection efficiency of 33%.

For the compound `Cc1ccc(NC(=O)c2ccc(CN3CCN(C)CC3)cc2)cc1Nc1nccc(-c2cccnc2)n1` [Gleevec, imatinib], the “sensitivity to Gleevec (apoptosis)” value in the assay on KBM7 cells [3] was “very sensitive; also recorded: sensitive”.
